According to the kinase profiling compilation of Christmann-Franck et al. (2016):
pKd: −log10 of the molar value.

Key:
Assay in all cases: KINOMEscan competition binding
[1] = target: ADCK3 (human) (UniProt Q8NI60); conditions: compound 10.0 µM
[2] = target: AKT3 (human) (UniProt Q9Y243); conditions: compound 10.0 µM
[3] = target: BRAF (human) (UniProt P15056); conditions: compound 10.0 µM
[4] = target: CDK19 (human) (UniProt Q9BWU1); conditions: compound 10.0 µM
[5] = target: CLK4 (human) (UniProt Q9HAZ1); conditions: compound 10.0 µM
[6] = target: CSK (human) (UniProt P41240); conditions: compound 10.0 µM
[7] = target: DCLK1 (human) (UniProt O15075)
[8] = target: ERBB3 (human) (UniProt P21860); conditions: compound 10.0 µM
[9] = target: HUNK (human) (UniProt P57058); conditions: compound 10.0 µM
[10] = target: INSR (human) (UniProt P06213); conditions: compound 10.0 µM
[11] = system: KIT (human), P10721 [D816V]; conditions: compound 10.0 µM
[12] = target: LATS1 (human) (UniProt O95835); conditions: compound 10.0 µM
[13] = target: LATS2 (human) (UniProt Q9NRM7); conditions: compound 10.0 µM
[14] = target: MAP2K3 (human) (UniProt P46734); conditions: compound 10.0 µM
[15] = target: MAP3K2 (human) (UniProt Q9Y2U5); conditions: compound 10.0 µM
[16] = target: MAP4K2 (human) (UniProt Q12851); conditions: compound 10.0 µM
[17] = target: MAPK15 (human) (UniProt Q8TD08); conditions: compound 10.0 µM
[18] = target: MARK1 (human) (UniProt Q9P0L2); conditions: compound 10.0 µM
[19] = target: MARK2 (human) (UniProt Q7KZI7); conditions: compound 10.0 µM
[20] = target: MAST1 (human) (UniProt Q9Y2H9); conditions: compound 10.0 µM
[21] = target: MKNK1 (human) (UniProt Q9BUB5); conditions: compound 10.0 µM
[22] = target: MYLK3 (human) (UniProt Q32MK0); conditions: compound 10.0 µM
[23] = target: NEK3 (human) (UniProt P51956); conditions: compound 10.0 µM
[24] = target: NEK4 (human) (UniProt P51957); conditions: compound 10.0 µM
[25] = target: NTRK3 (human) (UniProt Q16288); conditions: compound 10.0 µM
[26] = target: PAK1 (human) (UniProt Q13153); conditions: compound 10.0 µM
[27] = target: PDPK1 (human) (UniProt O15530); conditions: compound 10.0 µM
[28] = target: PIK3C2B (human) (UniProt O00750); conditions: compound 10.0 µM
[29] = system: PIK3CA (human), P42336 [E545K]; conditions: compound 10.0 µM
[30] = system: PIK3CA (human), P42336 [H1047L]; conditions: compound 10.0 µM
[31] = target: PRKAA2 (human) (UniProt P54646); conditions: compound 10.0 µM
[32] = target: PRKACA (human) (UniProt P17612); conditions: compound 10.0 µM
[33] = target: PRKD2 (human) (UniProt Q9BZL6); conditions: compound 10.0 µM
[34] = target: PRKX (human) (UniProt P51817); conditions: compound 10.0 µM
[35] = target: RIPK1 (human) (UniProt Q13546); conditions: compound 10.0 µM
[36] = target: RPS6KA2 KD1 (human) (UniProt Q15349); conditions: compound 10.0 µM
[37] = target: SIK2 (human) (UniProt Q9H0K1); conditions: compound 10.0 µM
[38] = target: STK32A (human) (UniProt Q8WU08); conditions: compound 10.0 µM
[39] = target: STK39 (human) (UniProt Q9UEW8); conditions: compound 10.0 µM
[40] = target: TEK (human) (UniProt Q02763); conditions: compound 10.0 µM
[41] = target: TGFBR2 (human) (UniProt P37173); conditions: compound 10.0 µM

Sequence of DCLK1 (human) (O15075 whole entry, looked up): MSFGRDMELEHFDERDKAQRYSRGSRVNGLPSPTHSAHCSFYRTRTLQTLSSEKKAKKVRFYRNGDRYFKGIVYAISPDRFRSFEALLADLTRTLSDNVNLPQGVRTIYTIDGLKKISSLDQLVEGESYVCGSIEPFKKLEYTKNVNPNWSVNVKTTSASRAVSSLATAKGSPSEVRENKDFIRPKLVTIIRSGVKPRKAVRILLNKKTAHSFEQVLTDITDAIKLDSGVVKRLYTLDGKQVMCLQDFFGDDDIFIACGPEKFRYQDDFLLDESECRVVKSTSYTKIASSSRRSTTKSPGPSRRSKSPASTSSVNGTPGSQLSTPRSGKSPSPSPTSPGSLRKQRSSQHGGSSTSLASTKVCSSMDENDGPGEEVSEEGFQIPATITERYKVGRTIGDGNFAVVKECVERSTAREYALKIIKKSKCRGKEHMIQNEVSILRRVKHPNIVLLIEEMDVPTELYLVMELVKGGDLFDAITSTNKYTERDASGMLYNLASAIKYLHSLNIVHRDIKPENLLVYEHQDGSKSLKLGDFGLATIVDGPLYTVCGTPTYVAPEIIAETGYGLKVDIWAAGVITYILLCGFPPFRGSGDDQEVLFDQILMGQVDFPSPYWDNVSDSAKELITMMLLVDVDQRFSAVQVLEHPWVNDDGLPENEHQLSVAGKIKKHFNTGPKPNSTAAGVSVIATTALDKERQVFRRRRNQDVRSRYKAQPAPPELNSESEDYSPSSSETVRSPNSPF
Sequence of PRKD2 (human) (Q9BZL6 whole entry, looked up): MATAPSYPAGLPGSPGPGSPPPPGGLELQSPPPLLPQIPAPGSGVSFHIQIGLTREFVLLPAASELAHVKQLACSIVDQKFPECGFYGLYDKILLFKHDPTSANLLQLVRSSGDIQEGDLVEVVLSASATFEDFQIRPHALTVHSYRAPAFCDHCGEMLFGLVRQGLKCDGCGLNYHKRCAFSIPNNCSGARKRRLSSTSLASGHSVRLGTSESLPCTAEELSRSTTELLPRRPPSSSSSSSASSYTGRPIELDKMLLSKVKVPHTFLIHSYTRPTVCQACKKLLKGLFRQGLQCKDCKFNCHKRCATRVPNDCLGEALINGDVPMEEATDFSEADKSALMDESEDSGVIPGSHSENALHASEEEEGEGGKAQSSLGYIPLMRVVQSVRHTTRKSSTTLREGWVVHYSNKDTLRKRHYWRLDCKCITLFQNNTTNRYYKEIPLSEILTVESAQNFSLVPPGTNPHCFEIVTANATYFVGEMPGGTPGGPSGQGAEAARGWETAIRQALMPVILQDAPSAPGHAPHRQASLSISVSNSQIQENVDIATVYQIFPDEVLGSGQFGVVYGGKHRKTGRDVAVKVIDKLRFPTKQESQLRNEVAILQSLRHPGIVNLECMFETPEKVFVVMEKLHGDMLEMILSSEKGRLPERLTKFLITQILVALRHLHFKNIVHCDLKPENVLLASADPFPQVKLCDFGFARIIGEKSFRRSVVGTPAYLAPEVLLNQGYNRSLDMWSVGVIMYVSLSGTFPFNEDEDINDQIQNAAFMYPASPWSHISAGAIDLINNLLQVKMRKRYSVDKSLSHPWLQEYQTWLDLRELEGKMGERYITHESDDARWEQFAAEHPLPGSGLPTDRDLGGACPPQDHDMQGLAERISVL
Sequence of CSK (human) (P41240 whole entry, looked up): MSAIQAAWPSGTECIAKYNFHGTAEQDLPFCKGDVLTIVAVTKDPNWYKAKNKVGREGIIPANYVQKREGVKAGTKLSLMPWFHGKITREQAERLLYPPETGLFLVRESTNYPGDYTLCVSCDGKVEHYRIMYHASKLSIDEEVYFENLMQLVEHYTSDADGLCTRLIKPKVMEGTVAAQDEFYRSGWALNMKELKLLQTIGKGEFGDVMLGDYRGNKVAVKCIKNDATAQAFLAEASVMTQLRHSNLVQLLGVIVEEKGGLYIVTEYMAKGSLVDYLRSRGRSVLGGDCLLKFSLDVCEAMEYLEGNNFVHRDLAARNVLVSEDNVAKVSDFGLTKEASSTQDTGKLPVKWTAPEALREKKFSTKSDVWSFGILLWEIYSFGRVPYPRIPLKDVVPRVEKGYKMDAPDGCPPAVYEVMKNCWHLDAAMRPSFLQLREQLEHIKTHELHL
Sequence of ADCK3 (human) (Q8NI60 whole entry, looked up): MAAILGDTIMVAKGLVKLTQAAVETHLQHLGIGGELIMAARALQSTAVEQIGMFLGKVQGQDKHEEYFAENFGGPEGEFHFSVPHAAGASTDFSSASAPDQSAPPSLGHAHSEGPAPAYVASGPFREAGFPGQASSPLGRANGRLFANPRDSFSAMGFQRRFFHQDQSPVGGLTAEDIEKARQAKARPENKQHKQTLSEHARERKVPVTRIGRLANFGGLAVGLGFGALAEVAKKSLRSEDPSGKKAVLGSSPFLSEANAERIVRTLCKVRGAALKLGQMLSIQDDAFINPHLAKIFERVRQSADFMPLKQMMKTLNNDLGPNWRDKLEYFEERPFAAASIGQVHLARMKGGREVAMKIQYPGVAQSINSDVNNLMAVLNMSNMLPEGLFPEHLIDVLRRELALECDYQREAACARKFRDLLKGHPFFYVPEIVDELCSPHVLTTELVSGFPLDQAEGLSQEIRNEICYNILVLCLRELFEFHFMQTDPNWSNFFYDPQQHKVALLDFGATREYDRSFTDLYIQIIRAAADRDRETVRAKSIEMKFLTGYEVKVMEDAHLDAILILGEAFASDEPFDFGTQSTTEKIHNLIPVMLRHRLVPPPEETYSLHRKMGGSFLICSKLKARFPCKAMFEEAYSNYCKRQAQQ
Sequence of MAP2K3 (human) (P46734 whole entry, looked up): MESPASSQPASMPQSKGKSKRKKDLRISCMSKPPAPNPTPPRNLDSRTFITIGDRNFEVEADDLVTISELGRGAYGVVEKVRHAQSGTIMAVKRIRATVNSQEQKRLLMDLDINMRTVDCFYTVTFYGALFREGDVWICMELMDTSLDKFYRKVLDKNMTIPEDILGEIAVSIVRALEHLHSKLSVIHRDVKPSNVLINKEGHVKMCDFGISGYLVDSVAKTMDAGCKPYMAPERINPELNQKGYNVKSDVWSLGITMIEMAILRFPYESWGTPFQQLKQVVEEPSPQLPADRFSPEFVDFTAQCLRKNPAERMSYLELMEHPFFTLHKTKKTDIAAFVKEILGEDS
Sequence of PIK3C2B (human) (O00750 whole entry, looked up): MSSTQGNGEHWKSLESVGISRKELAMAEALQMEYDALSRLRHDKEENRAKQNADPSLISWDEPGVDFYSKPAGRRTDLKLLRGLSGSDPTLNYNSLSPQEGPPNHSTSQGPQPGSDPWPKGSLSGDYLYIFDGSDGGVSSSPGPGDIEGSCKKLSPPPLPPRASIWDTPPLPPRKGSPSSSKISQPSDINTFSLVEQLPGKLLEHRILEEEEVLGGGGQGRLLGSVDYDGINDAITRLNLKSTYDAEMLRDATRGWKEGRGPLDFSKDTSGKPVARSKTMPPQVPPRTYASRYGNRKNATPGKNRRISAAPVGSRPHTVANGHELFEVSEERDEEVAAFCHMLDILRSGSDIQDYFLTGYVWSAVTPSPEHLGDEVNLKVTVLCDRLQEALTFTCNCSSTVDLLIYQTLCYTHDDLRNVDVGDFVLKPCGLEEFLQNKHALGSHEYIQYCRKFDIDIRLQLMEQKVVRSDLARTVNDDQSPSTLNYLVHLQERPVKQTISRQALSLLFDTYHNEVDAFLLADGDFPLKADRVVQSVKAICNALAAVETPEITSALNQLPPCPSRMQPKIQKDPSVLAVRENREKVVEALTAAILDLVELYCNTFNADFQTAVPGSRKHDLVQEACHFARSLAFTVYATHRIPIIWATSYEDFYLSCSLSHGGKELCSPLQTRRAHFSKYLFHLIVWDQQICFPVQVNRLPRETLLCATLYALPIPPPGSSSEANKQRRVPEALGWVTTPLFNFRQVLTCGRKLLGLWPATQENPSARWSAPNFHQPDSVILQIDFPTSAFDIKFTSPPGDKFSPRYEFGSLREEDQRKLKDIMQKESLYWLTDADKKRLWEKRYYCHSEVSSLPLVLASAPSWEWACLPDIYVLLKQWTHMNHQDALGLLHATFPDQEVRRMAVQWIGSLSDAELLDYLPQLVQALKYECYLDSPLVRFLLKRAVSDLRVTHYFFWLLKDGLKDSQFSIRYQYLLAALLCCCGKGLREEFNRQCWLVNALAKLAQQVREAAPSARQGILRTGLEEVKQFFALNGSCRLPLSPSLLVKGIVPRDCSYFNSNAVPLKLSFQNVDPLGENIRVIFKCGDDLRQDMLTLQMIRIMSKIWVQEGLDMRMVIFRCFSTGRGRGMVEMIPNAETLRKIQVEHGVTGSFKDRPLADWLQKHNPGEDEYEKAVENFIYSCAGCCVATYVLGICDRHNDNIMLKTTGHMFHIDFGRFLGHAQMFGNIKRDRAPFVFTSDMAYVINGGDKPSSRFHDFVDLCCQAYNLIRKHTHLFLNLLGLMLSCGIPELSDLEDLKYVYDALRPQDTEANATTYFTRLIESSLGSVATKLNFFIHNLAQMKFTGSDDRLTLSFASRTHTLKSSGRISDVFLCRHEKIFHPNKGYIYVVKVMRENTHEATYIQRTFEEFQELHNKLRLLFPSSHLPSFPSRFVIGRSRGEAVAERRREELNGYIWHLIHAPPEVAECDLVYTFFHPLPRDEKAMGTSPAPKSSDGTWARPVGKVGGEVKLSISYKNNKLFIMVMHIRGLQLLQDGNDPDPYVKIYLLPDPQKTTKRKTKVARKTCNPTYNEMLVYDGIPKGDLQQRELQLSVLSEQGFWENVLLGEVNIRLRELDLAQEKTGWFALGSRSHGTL
Sequence of PRKX (human) (P51817 whole entry, looked up): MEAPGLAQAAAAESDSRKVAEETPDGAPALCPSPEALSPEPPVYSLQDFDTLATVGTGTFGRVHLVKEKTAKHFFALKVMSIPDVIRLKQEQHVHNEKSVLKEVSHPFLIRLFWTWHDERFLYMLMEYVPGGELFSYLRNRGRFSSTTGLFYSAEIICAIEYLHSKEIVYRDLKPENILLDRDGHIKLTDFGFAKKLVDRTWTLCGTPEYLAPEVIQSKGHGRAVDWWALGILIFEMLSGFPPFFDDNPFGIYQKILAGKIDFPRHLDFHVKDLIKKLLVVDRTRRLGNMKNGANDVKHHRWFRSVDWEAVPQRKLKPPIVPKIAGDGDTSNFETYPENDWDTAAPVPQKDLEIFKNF

COc1cc(C(=O)N2CCC(N3CCN(C)CC3)CC2)ccc1Nc1ncc2c(n1)N(C)c1ccccc1C(=O)N2C
kinase still bound, per cent of control [1]: 71% | kinase still bound, per cent of control [2]: 100% | kinase still bound, per cent of control [3]: 81% | residual activity [4]: 100% | kinase still bound, per cent of control [5]: 54% | kinase still bound, per cent of control [6]: 90% | pKd [7]: 8.30 | kinase still bound, per cent of control ([7]; compound 10.0 µM): 4.2% | kinase still bound, per cent of control [8]: 100% | kinase still bound, per cent of control [9]: 100% | kinase still bound, per cent of control [10]: 84% | kinase still bound, per cent of control [11]: 72% | kinase still bound, per cent of control [12]: 100% | kinase still bound, per cent of control [13]: 95% | kinase still bound, per cent of control [14]: 75% | kinase still bound, per cent of control [15]: 97% | kinase still bound, per cent of control [16]: 100% | kinase still bound, per cent of control [17]: 100% | kinase still bound, per cent of control [18]: 87% | kinase still bound, per cent of control [19]: 100% | kinase still bound, per cent of control [20]: 100% | kinase still bound, per cent of control [21]: 50% | kinase still bound, per cent of control [22]: 100% | kinase still bound, per cent of control [23]: 100% | kinase still bound, per cent of control [24]: 95% | kinase still bound, per cent of control [25]: 100% | kinase still bound, per cent of control [26]: 95% | kinase still bound, per cent of control [27]: 100% | kinase still bound, per cent of control [28]: 100% | kinase still bound, per cent of control [29]: 100% | kinase still bound, per cent of control [30]: 20% | kinase still bound, per cent of control [31]: 66% | residual activity [32]: 100% | kinase still bound, per cent of control [33]: 59% | kinase still bound, per cent of control [34]: 99% | kinase still bound, per cent of control [35]: 99% | kinase still bound, per cent of control [36]: 83% | kinase still bound, per cent of control [37]: 98% | kinase still bound, per cent of control [38]: 100% | residual activity [39]: 39% | kinase still bound, per cent of control [40]: 100% | kinase still bound, per cent of control [41]: 100%
